Measured values taken from patent US20260000655A1, “PHARMACEUTICAL COMPOSITION FOR USE IN PREVENTION OR TREATMENT OF LIFESTYLE-RELATED DISEASE” (priority 2022, published 2026).

Legend:
[1] = system: myotube cell model L6-GLUT4myc, liver cell model HepG2 cells, adipocyte model 3T3-L1; assay: Glucose uptake (2-deoxyglucose) into cells; format: cell-based, rat, human, mouse; settings: HPH-15 10 μM or 50 μM vs metformin 2 mM; 24 hours; 2-deoxyglucose 2 mM, 20 minutes
Method: The uptake of glucose into cells by HPH-15 was examined using the myotube cell model L6-GLUT4myc, the liver cell model HepG2 cells, and the adipocyte model 3T3-L1.
The myotube cell model L6-GLUT4myc, the liver cell model HepG2 cells, and the adipocyte model 3T3-L1 used in Example 1 were each seeded onto a 24-well plate (1×10^5 cells/well, […] of culture liquid) and cultured overnight. Then, a DMSO solution (1%) containing HPH-15 (final concentration: 10 μM or 50 μM), metformin (final concentration: 2 mM), or insulin (final concentration: 100 nM) was added to the medium, and the cells were further cultured for 24 hours. As a control, only DMSO solution (1%) was added, and the cells were cultured for 24 hours in the same manner. Next, the cells were washed with KRPH buffer (containing 2% BSA) and cultured in the presence of 2-deoxyglucose (final concentration: 2 mM, FUJIFILM Wako Pure Chemical Corp.) for 20 minutes at 37° C. The uptake of 2-deoxyglucose was stopped by washing the cells with cold PBS, and the amount of glucose taken up into the cells was measured using a Glucose Cellular Uptake Measurement Kit (Cosmo Bio).

[2] = system: high-fat diet-induced obesity model mice; assay: Sirius Red staining and collagen amount in mouse tissue; format: in vivo; settings: HPH-15 10 mg/kg or 100 mg/kg, metformin 300 mg/kg, orally 28 days, Western blotting
Method: High-fat diet-induced obesity model mice were prepared in the same manner as in Example 7. Then, HPH-15 (10 mg/kg or 100 mg/kg, […]) dissolved in olive oil or metformin (300 mg/kg, […]) was orally administered once a day for 28 days. Olive oil alone was administered as a control. After 28 days of administration of each, the liver and the epididymal fat of the high-fat diet-induced obesity model mice were stained with Sirius Red and observed using a microscope.
Further, high-fat diet-induced obesity model mice were prepared in the same manner as in Example 7. Then, HPH-15 (10 mg/kg or 100 mg/kg, […]) dissolved in olive oil or metformin (300 mg/kg, […]) was orally administered once a day for 28 days. Olive oil alone was administered as a control. After 28 days of administration of each, equal amounts (50 mg) of tissue pieces were collected from the liver and epididymal adipose tissues of the high-fat diet-induced obesity model mice, transferred to 1.5 mL Eppendorf tubes, and washed twice with PBS. After washing, the tissue pieces were transferred to BIOMASHER II, […] of RIPA buffer was added, and the tissue pieces were homogenized on ice. After homogenization, the tissue pieces were centrifuged (10,000 rpm, 4° C., 5 min) and the supernatant was obtained as a protein solution. The concentration of the proteins thus obtained was corrected based on the protein concentration measured by the BCA method using bicinchoninic acid (BCA), thereby preparing samples for Western blotting. Western blotting was quantified using ImageJ to calculate the amount of collagen.

Smad 3 = settings: Non-Patent Literature 3; cited from earlier work

CC(C)(C)SCCNC(=S)c1cccc(C(=S)NCCSC(C)(C)C)n1 [HPH-15]
glucose uptake amount [1]: increased the glucose uptake amount to the same extent as or to a greater extent than metformin | amount of collagen in the epididymal adipose tissue [2]: strongly reduced | amount of collagen in the liver tissue [2]: strongly reduced | phosphorylation of Smad 3 induced by TGF-β (Smad 3): reduces the phosphorylation of Smad 3 induced by TGF-β
